Measured values reported in patent US8901155B2, “Method for treating a TRPV1-mediated disease” (Santen Pharmaceutical Co., Ltd., priority 2007, dated 2014).

What was measured:
human TRPV1 = molecular target: T1, human TRPV1 (Homo sapiens, UniProt Q8NER1); test: Intracellular calcium influx in human TRPV1-expressing CHO cells; assay type: cell-based; settings: final concentration 1 μM; relative to 1 μM capsaicin
T1 construct: expressed in transfected cells; host or cells: CHO cells
From the text: 3. Measurement of Intracellular Calcium Influx by Present Compound in Human TRPV1-Expressing Cells
It is known that TRPV1 is an ion channel receptor and by the activation of TRPV1, intracellular calcium ion influx occurs. According to the method of Phelps et al. (Eur. J. Pharmacol., 513: 57-66, 2005), the action of the present compound of activating human TRPV1 was studied using CHO cells transfected with a gene encoding human TRPV1.
CHO cells were suspended in DMEM and seeded in a culture plate at 3.5×10^4 cells/well. A test compound or a control compound was dissolved in DMSO to prepare a DMSO solution, and times concentrated test compound-containing liquid and control compound-containing liquid each of which was composed of HBSS and contained the thus prepared DMSO solution were prepared.
To the CHO cells, a calcium indicator was added, and the resulting mixture was incubated at 37° C. for 30 minutes, and then further incubated at 22° C. for 30 minutes to achieve equilibration. Subsequently, one-tenth volume of the test compound-containing liquid, control compound-containing liquid (final concentration: 1 μM), or HBSS solution was added thereto, and a change in the fluorescence intensity of the intracellular calcium concentration indicator was measured.
(Calcium influx(%))=((fluorescence intensity in the presence of test compound)−(background fluorescence intensity)/(fluorescence intensity in the presence of control compound)−(background fluorescence intensity))×100

[1] = Rat model of indomethacin-induced gastric mucosal injury; assay type: in vivo; settings: indomethacin 30 mg/kg s.c., 6 hours
Description: 7. Effect in Rat Model of Gastrointestinal Dysfunction
A model of indomethacin-induced gastric mucosal injury is a model of gastrointestinal dysfunction widely used in the evaluation of drug efficacy of a therapeutic agent for ulcer. According to the method of Hoshino et al. (Folia Pharmacologica Japonica, Vol. 97, p. 287, 1991), the effect of the present compound in a rat model of indomethacin-induced gastric mucosal injury was studied.
A test compound-containing liquid was prepared immediately before use by suspending a test compound in a 1% aqueous methyl cellulose solution which is a vehicle. […]
To a rat fasted for 24 hours, the test compound-containing liquid, control compound-containing liquid, or vehicle (pathological control group) was orally administered, and immediately thereafter, indomethacin (Wako Pure Chemical Industries, Ltd.) was subcutaneously administered at a dose of 30 mg/kg. […] The length of the longest diameter of the site of a lesion dyed in blue including an ecchymosis was measured macroscopically using calipers.
A mean value of the sum of the longest diameters of the sites of lesions was obtained for each animal and was defined as an ulcer index. Further, a ratio of inhibition of gastric mucosal injury was calculated from the following equation. […]

vanilloid receptor = molecular target: T2, vanilloid receptor (Rattus norvegicus, UniProt O35433); test: Binding activity in rat spinal cord membrane specimen (3H-RTX competition)
T2 construct: Rat spinal cord was homogenized according to a common procedure; from tissue; host or cells: rat spinal cord membrane specimen
T2 sequence (O35433 whole entry): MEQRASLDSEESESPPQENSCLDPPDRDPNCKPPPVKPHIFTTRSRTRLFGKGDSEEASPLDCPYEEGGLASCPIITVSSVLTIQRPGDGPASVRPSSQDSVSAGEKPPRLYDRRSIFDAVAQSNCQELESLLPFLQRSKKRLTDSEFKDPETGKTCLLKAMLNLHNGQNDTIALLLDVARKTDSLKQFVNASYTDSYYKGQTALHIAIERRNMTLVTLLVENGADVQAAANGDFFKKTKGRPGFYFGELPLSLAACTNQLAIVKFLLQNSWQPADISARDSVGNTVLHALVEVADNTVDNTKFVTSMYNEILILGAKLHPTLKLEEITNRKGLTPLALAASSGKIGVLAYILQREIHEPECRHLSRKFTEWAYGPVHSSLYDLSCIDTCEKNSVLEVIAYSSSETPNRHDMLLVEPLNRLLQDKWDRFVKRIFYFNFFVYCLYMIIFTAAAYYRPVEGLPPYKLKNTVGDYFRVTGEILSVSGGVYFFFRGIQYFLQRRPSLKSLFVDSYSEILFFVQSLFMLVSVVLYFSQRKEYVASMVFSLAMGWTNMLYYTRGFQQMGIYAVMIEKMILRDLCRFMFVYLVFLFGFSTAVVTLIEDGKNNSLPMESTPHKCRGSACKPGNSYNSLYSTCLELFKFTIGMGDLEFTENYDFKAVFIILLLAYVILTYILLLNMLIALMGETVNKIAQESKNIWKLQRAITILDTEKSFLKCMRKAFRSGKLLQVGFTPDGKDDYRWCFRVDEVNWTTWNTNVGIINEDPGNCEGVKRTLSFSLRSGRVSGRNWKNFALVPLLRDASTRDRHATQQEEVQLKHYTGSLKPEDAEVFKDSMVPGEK
Description: Binding Activity of the Present Compound in Rat Spinal Cord Membrane Specimen
According to the method of Szallasi et al., the binding activity of the present compound to a vanilloid receptor contained in a rat spinal cord membrane specimen was studied.
A test compound-containing liquid and a competitive compound-containing liquid containing a test compound and a competitive compound, respectively, and each composed of purified water containing 1% DMSO were prepared. As the competitive compound, tritium-labeled resiniferatoxin (^3H-RTX) was used, and the concentration of ^3H-RTX in the competitive compound-containing liquid was set to 0.2 nM.
Rat spinal cord was homogenized according to a common procedure, and the resulting homogenate was washed several times, followed by centrifugation. The resulting pellet was suspended in an incubation buffer (10 mM HEPES, pH 7.4, 0.25 mg/ml ESA, 0.75 mM CaCl2, 5 mM KCl, 2 mM MgCl2, 5.8 mM NaCl, 137 mM sucrose) at 10 mg/mL, whereby a membrane specimen was prepared.
After 5.25 μL of the test compound-containing liquid and 500 μL of the membrane specimen were mixed, 20 μL of the competitive compound-containing liquid was added thereto, and the entire resulting mixture was incubated at 37° C. for 60 minutes. The resulting membrane/^3H-RTX complex was collected by filtration, followed by washing. Then, the radioactivity was measured with a scintillation counter.
The above-mentioned assay was performed using the test compound-containing liquids containing a test compound at various concentrations and the results were analyzed as follows.
The inhibition ratio (%) of the test compound at each concentration was obtained from the following equation. (Inhibition ratio(%))={1−[(binding activity in the presence of test compound (cpm))−(radioactivity of non-specific binding (cpm))]/[(radioactivity of total binding (cpm))−(radioactivity of non-specific binding (cpm))]×100 […]

TRPV1 = molecular target: T3, TRPV1 (Rattus norvegicus, UniProt O35433); test: CGRP release in cultured rat dorsal root ganglion-derived neurons; assay type: cell-based
T3 construct: A dorsal root ganglion isolated from the spinal cord of a rat was sectioned and enzymatically treated; endogenous in cells; host or cells: primary cultured rat dorsal root ganglion neurons
T3 sequence (O35433 whole entry): as above
From the text: 2. Effect of Present Compound on TRPV1 Agonist-Induced CGRP Release System Using Rat Dorsal Root Ganglion-Derived Neurons It is known that TRPV1 is expressed in dorsal root ganglion (DRG), and that by the activation of TRPV1, CGRP which is a neurotransmitter is released from a nerve terminal. According to the method of Ahluwalia et al., (European Journal of Neuroscience, Vol. 17, p. 2611, 2003), the CGRP releasing activity of the present compound in cultured neurons derived from rat DRG was studied. A test compound was weighed and dissolved in DMSO. The resulting solution was diluted with a medium, whereby a test compound-containing liquid was prepared. Each test compound-containing liquid was prepared such that 0.4% DMSO was contained therein as well. […] A dorsal root ganglion isolated from the spinal cord of a rat was sectioned and enzymatically treated with a collagenase/DNase I solution at 37° C. for 1 hour, and then with a trypsin/DNase I solution at 37° C. for 20 minutes. The released neurons were washed and collected, and then seeded in a poly-D-lysine/laminin-coated culture dish and cultured under conditions of 37° C. and 5% CO2 in a neuronal medium (NGF/NCS medium) supplemented with a nerve growth factor for 1 day. The medium was replaced with an NGF/NCS medium containing cytosine arabinoside, and the neurons were further cultured for 2 days. […]

T1 sequence (Q8NER1 whole entry): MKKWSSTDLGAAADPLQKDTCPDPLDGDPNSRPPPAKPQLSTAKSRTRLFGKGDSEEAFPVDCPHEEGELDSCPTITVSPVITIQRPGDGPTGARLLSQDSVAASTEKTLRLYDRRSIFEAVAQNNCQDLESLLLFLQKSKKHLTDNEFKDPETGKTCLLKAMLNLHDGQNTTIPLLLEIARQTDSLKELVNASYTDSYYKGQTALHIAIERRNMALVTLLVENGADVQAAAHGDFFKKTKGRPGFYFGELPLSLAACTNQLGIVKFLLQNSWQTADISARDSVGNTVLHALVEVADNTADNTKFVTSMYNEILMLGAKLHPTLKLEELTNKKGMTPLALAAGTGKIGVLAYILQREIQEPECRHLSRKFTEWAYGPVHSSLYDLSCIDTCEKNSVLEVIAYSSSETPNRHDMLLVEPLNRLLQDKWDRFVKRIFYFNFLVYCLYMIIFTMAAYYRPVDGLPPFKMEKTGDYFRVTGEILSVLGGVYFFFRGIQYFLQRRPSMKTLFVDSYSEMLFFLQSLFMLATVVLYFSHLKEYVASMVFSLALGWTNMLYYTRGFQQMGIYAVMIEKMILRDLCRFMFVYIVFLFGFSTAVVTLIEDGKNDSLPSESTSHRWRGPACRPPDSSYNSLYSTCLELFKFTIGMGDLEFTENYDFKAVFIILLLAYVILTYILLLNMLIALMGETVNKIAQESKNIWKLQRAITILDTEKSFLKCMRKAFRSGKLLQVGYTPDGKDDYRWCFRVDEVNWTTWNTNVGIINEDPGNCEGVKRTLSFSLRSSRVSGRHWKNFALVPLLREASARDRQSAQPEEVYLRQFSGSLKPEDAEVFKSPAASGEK

In the case of O=C(NCCCc1ccncc1)N(CCC(F)(F)F)CCC12CC3CC(CC(C3)C1)C2 [Compound 2, 1-[2-(1-adamantyl)ethyl]-3-[3-(4-pyridyl)propyl]-1-(3,3,3-trifluoropropyl)urea], the “Calcium influx (%)” value (human TRPV1) is reported as 74.1%.

In the case of CCCCCN(CCC12CC3CC(CC(C3)C1)C2)C(=O)NC(C)CCc1ccncc1 (stereo not shown) [Compound 4, 1-[2-(1-adamantyl)ethyl]-3-[1-methyl-3-(4-pyridyl)propyl]-1-pentylurea], the “Calcium influx (%)” value (human TRPV1) is reported as 43.9%.

In the case of CCCCCN(CCC12CC3CC(CC(C3)C1)C2)C(=O)NCC(C)Cc1ccncc1 (stereo not shown) [Compound 5, 1-[2-(1-adamantyl)ethyl]-3-[2-methyl-3-(4-pyridyl)propyl]-1-pentylurea], the “Calcium influx (%)” value (human TRPV1) is reported as 64.3%.

With CCCCCN(CCC12CC3CC(CC(C3)C1)C2)C(=O)NCCCc1ccncc1 [Compound 1, 1-[2-(1-adamantyl)ethyl]-1-pentyl-3-[3-(4-pyridyl)propyl]urea] the “inhibition ratio (%) of gastric mucosal injury” value ([1]; 1 mg/kg oral) was 67.41%, the IC50 (vanilloid receptor; 0.2 nM 3H-RTX liquid, 37° C. 60 minutes, mean±SEM of assays performed in triplicate, read-out: IC50 value to the vanilloid receptor in the rat spinal cord neuronal membrane specimen) was 191 ± 28 nM and the Ki (vanilloid receptor; from IC50, dissociation constant 0.046 nM, mean±SEM, read-out: Ki value to the vanilloid receptor in the rat spinal cord neuronal membrane specimen) was 35.8 ± 5.2 nM. For the same compound, the Hill coefficient (vanilloid receptor; nonlinear regression of inhibition curve) was 1.83±0.449, the “CGRP release in competitive inhibition assay with capsazepine” value (TRPV1; 10 μM (final concentration) capsazepine, FIG. 3) was “antagonized by capsazepine” and the CGRP release (TRPV1; absence of capsazepine, 10 minutes culture, FIG. 2) was “released CGRP in a dose-dependent manner”.

With CCCCCN(CCC12CC3CC(CC(C3)C1)C2)C(=O)NCC(C)Cc1ccncc1 (single isomer, unassigned; (+)) [Compound 6, (+)-1-[2-(1-adamantyl)ethyl]-3-[2-methyl-3-(4-pyridyl)propyl]-1-pentylurea] the “Calcium influx (%)” value (human TRPV1) was 76.6%.

With CCCN(CCCC12CC3CC(CC(C3)C1)C2)C(=O)NCCCc1ccncc1 [Compound 3, 1-[3-(1-adamantyl)propyl]-1-propyl-3-[3-(4-pyridyl)propyl]urea] the “Calcium influx (%)” value (human TRPV1) was 59.8%.

With COc1ccc2[nH]c([S+]([O-])Cc3ncc(C)c(OC)c3C)nc2c1 (stereo not shown) [Omeprazole, omeprazole, reference compound] the “inhibition ratio (%) of gastric mucosal injury” value ([1]; 10 mg/kg oral) was 69.22%.

In the case of CCCCCN(CCC12CC3CC(CC(C3)C1)C2)C(=O)NC/C=C/c1ccncc1 [Compound 7, (E)-1-[2-(1-adamantyl)ethyl]-1-pentyl-3-[3-(4-pyridyl)-2-propenyl]urea], the “Calcium influx (%)” value (human TRPV1) is reported as 36.1%.
